Measured values reported in patent US20250368666A1, “INDAZOLE COMPOUNDS” (TYRA BIOSCIENCES, INC., priority 2022, published 2025).
pIC50: −log10 of the molar value.

Key:
FGFR1 = target: T1, FGFR1 (Homo sapiens, UniProt P11362); test: Kinase binding assay (kinase-tagged T7 phage, affinity beads, qPCR), Kd; conditions: read-out: FGFR1 (Kd nM)
T1 construct: made in house; host or cells: E. coli (BL21-derived), T7 phage
Outline: (§1)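 Competition binding of compounds against kinase-tagged T7 phage captured on immobilised biotinylated ligand beads; bead-bound kinase quantified by qPCR of eluates. 11-point 3-fold dilution, 0.9% DMSO final; Kd from Hill fit with slope fixed at −1.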

FGFR3 = target: T2, FGFR3 (Homo sapiens, UniProt P22607); test: as above; conditions: read-out: FGFR3 (Kd nM)
T2 construct: made in house; host or cells: E. coli (BL21-derived), T7 phage
Outline: as §1

[1] = test system: KG-1 cell line (FGFR 1-fusion); test: Cancer cell line cell viability assay (Cell Titer-Glo), 72 hr; assay type: cell-based; conditions: Homo sapiens, KG-1, KG-1 cell line (FGFR1-fusion)
Source text: (§2) Experimental Purpose: To detect the change of intracellular ATP by Cell Titer-Glo® and to evaluate the inhibitory effect of the compounds on cancer cell lines by determining the in vitro IC50 value of the compounds.
(§3) Cell Titer-Glo® 2.0 Luminescent cell viability assay reagent was purchased from Promega (Madison, WI). KG-1, KATO-III, and MDA-MB-453 cell lines were purchased from American Type Culture Collection (Manassas, VA). RT112/84 cell line was purchased from Millipore-Sigma (St. Louis, MO). HuH7 cells were purchased from Seikisui Xenotech (Kansas City, KS). RT112/84 and MDA-MB-453 cells were cultured in RPMI1640 media supplemented with 10% fetal bovine serum. KG-1 and KATO-III cell lines were cultured in IMDM media supplemented with 20% FBS. HuH7 cells were cultured in IMDM media supplemented with 10% FBS. Cultures were maintained at 37° C. in a humidified atmosphere of 5% CO2 and 95% air.
(§4) Cell Viability Assay Procedure: Cells were plated in 96-well clear bottom/white plates (Corning #3903) at a range of densities depending on the optimal assay window (5,000-20,000 cells/well in […] of media), incubated overnight. The next day, test compound DMSO stock solutions were made at 10 mM and […] final concentration. Compounds were then added to cells in a 9-dose, 4-fold dilution series starting at 3 μM with an HP 300e Digital Dispenser (each dose was applied in triplicate). DMSO was backfilled to each well up to 301 nL total volume of test compound+DMSO, and a total of 301 nL DMSO was added to a control/no test compound well in triplicate. The cells in cell culture plates were incubated with the compounds at 37° C. and 5% CO2 for 72 hours-120 hours depending on the cell line. Then 50 μl of Cell Titer Glo 2.0 reagent was added to each well of the cell culture plates. The contents were covered from light and mixed on an orbital shaker at room temperature for minimum of 10 min. Luminescence was recorded by a Clariostar Plus Microplate Reader (BMG Labtech, Cary, NC). Cells were assessed as a percentage of DMSO only treated control cells. Curves were plotted and IC50 values were calculated using the GraphPad Prism 9 program based on a sigmoidal dose-response equation (log (inhibitor) vs. response—Variable slope, 4-parameter).

[2] = test system: RT112/84 cell line (FGFR3-fusion); test: as above; assay type: cell-based; conditions: Homo sapiens, RT112/84, RT112/84 cell line (FGFR3-fusion)
Source text: as §2, §3, §4

FGFR2 = target: T3, FGFR2 (Homo sapiens, UniProt P21802); test: Kinase binding assay (kinase-tagged T7 phage, affinity beads, qPCR), Kd; conditions: read-out: FGFR2 (Kd nM)
T3 construct: made in house; host or cells: E. coli (BL21-derived), T7 phage
Outline: as §1

FGFR3 (V555M) = target: T4, FGFR3 (V555M) (Homo sapiens, UniProt P22607, V555M); test: as above; conditions: V555M mutant; read-out: FGFR3 (V555M) (Kd nM)
T4 construct: made in house; host or cells: E. coli (BL21-derived), T7 phage
Outline: as §1

FGFR4 = target: T5, FGFR4 (Homo sapiens, UniProt P22455); test: as above; conditions: read-out: FGFR4 (Kd nM)
T5 construct: made in house; host or cells: E. coli (BL21-derived), T7 phage
Outline: as §1

T2 sequence (P22607 23-806): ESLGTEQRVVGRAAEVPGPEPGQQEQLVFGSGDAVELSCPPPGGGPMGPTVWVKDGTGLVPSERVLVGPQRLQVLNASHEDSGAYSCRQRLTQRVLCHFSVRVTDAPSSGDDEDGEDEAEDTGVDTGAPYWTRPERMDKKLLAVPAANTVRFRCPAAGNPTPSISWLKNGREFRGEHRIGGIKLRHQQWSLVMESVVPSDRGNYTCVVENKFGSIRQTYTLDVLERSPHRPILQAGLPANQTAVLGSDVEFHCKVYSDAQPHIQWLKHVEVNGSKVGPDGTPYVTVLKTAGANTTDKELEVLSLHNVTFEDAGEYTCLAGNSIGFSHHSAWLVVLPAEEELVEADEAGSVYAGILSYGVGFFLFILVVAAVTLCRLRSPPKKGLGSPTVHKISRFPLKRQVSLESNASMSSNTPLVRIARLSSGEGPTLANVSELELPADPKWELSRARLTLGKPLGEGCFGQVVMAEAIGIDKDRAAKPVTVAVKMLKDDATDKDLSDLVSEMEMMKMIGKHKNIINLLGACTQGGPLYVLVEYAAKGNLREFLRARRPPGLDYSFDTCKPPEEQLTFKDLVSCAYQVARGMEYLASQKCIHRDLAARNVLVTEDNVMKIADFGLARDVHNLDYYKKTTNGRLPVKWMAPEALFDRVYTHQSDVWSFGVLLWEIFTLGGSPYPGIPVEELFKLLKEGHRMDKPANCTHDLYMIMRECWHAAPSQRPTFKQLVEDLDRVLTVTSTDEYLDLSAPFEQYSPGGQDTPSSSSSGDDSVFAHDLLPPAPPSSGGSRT
T1 sequence (P11362 22-822): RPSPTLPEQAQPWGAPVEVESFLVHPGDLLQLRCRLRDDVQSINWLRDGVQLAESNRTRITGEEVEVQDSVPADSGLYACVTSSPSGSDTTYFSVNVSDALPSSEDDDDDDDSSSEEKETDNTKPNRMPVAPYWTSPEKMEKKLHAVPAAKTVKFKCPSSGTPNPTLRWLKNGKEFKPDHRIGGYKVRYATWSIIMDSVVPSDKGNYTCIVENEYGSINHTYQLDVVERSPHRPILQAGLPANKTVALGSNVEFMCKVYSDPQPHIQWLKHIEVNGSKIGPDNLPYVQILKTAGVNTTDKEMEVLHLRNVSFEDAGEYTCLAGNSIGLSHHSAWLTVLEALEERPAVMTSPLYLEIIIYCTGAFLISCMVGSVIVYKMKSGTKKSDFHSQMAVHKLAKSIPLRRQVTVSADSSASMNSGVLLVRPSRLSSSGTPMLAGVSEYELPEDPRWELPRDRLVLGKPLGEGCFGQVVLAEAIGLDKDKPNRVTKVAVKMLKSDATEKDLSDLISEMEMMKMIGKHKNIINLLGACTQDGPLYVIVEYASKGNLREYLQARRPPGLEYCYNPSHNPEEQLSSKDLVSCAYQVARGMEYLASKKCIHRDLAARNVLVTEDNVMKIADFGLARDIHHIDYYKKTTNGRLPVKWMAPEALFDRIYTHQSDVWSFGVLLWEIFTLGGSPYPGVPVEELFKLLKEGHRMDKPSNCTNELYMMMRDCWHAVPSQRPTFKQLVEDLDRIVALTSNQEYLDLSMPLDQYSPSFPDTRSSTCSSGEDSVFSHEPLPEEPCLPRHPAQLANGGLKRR
T3 sequence (P21802 22-821): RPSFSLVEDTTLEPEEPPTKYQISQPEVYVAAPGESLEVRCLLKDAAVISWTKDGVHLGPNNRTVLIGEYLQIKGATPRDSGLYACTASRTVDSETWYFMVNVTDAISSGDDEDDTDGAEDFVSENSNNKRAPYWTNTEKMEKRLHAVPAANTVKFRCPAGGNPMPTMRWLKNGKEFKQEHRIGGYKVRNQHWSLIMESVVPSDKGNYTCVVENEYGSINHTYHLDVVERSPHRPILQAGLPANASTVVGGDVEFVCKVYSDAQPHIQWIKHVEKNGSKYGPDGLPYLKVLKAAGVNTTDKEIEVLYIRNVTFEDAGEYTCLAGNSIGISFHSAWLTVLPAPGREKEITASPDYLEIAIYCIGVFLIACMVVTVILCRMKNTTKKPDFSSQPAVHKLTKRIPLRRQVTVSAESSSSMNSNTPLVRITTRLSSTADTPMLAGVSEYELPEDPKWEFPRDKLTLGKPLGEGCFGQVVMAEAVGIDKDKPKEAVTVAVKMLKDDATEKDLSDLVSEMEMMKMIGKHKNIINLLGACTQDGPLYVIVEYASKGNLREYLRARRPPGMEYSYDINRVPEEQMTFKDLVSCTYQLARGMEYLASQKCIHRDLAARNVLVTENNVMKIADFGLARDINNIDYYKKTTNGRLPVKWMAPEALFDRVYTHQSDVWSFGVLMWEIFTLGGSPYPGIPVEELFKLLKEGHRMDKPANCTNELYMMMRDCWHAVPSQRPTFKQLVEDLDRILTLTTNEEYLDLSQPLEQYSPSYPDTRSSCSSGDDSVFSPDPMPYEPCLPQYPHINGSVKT
T5 sequence (P22455 22-802): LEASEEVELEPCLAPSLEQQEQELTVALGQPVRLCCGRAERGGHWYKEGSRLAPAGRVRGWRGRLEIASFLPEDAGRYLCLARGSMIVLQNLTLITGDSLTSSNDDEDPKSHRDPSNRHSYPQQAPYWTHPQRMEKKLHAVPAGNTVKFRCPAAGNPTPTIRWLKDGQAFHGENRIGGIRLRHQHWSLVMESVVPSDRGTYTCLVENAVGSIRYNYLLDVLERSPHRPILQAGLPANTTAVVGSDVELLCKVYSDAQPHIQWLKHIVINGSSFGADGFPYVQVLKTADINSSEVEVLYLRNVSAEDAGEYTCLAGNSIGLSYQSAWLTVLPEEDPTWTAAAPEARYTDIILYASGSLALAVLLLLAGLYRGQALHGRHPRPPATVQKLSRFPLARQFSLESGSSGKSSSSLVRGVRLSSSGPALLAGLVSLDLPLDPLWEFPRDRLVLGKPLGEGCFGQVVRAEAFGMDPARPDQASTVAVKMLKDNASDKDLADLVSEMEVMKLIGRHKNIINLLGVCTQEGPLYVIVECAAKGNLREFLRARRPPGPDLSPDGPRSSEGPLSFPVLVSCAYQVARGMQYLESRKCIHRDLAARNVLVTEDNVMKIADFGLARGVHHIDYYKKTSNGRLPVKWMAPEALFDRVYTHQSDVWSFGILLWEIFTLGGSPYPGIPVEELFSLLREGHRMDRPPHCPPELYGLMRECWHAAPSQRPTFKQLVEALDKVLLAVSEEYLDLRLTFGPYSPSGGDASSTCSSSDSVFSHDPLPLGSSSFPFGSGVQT
T4 sequence (P22607 23-806 V555M): as the sequence (P22607 23-806) above, with V533M counted along it

SMILES | Kd (FGFR1) [nM] | Kd (FGFR3) [nM] | pIC50 [1] | pIC50 [2] | Kd (FGFR2) [nM] | Kd (FGFR3 (V555M)) [nM] | Kd (FGFR4) [nM]
C[C@@H](Oc1ccc2[nH]nc(-c3ccc(N4CC(C)(NCCF)C4)nn3)c2c1)c1c(Cl)cncc1Cl [Example 309, (R)-1-(6-(5-(1-(3,5-dichloropyridin-4-yl)ethoxy)-1H-indazol-3-yl)pyridazin-3-yl)-N-(2-fluoroethyl)-3-methylazetidin-3-amine] | 1 to 50 | 1 to 50 | 6.70 to 7.30 | 7.30 to 10.00 |  |  | 
C[C@@H](Oc1ccc2[nH]nc(-c3cnc(N4CC(C)(NCCC#N)C4)c(F)c3)c2c1)c1c(Cl)cncc1Cl [Example 310, (R)-3-((1-(5-(5-(1-(3,5-dichloropyridin-4-yl)ethoxy)-1H-indazol-3-yl)-3-fluoropyridin-2-yl)-3-methylazetidin-3-yl)amino)propane-nitrile] | 1 to 50 | 1 to 50 | 6.70 to 7.30 | 7.30 to 10.00 |  |  | 
C[C@@H](Oc1ccc2[nH]nc(-c3cnc(N4CC(C)(CNCCO)C4)c(F)c3)c2c1)c1c(Cl)cncc1Cl [Example 178, (R)-2-(((1-(5-(5-(1-(3,5-dichloro-pyridin-4-yl)ethoxy)-1H-indazol-3-yl)-3-fluoropyridin-2-yl)-3-methylazetidin-3-yl)methyl)amino) ethanol] | 1 to 50 | 1 to 50 |  |  | 1 to 50 | 1 to 50 | 1 to 50
C[C@@H](Oc1cc2c(-c3cnc(N4CC(C)(CP(C)(C)=O)C4)c(F)c3)n[nH]c2cc1F)c1c(Cl)cncc1Cl [Example 193, (R)-((1-(5-(5-(1-(3,5-dichloro-pyridin-4-yl)ethoxy)-6-fluoro-1H-indazol-3-yl)-3-fluoropyridin-2-yl)-3-methylazetidin-3-yl)methyl)dimethyl-phosphine oxide] | 1 to 50 | 1 to 50 |  |  | 1 to 50 | 1 to 50 | 1 to 50
C[C@@H](Oc1cc2c(-c3ccc(N4CC(C)(CN5CCOCC5)C4)nc3)n[nH]c2cc1F)c1c(Cl)cncc1Cl [Example 186, (R)-4-((1-(5-(5-(1-(3,5-dichloro-pyridin-4-yl)ethoxy)-6-fluoro-1H-indazol-3-yl)pyridin-2-yl)-3-methylazetidin-3-yl)methyl)morpho-line] | 1 to 50 | 1 to 50 |  |  | 1 to 50 | 1 to 50 | 1 to 50
CC(C)NC1(C)CN(c2ccc(-c3n[nH]c4ccc(O[C@H](C)c5c(Cl)cncc5Cl)c(F)c34)cn2)C1 [Example 173, (R)-1-(5-(5-(1-(3,5-dichloropyridin-4-yl)ethoxy)-4-fluoro-1H-indazol-3-yl)pyridin-2-yl)-N-isopropyl-3-methylazetidin-3-amine] | 300 to 1000 | 50 to 300 |  |  | 300 to 1000 | 1 to 50 | 300 to 1000
C[C@@H](Oc1ccc2[nH]nc(-c3cnc(N4CC(C)(N5CCC5)C4)c(F)c3)c2c1F)c1c(Cl)cncc1Cl [Example 184, (R)-5-(1-(3,5-dichloropyridin-4-yl)ethoxy)-4-fluoro-3-(5-fluoro-6-(3′-methyl-[1,3′-biazetidin]-1′-yl)pyridin-3-yl)-1H-indazole] | 300 to 1000 | 1 to 50 |  |  | 300 to 1000 | 1 to 50 | 50 to 300
C[C@@H](Oc1ccc2[nH]nc(-c3cnc(N4CC(C)(NCCO)C4)c(C#N)c3)c2c1F)c1c(Cl)cncc1Cl [Example 324, (R)-5-(5-(1-(3,5-dichloropyridin-4-yl)ethoxy)-4-fluoro-1H-indazol-3-yl)-2-(3-((2-hydroxy-ethyl)amino)-3-methylazetidin-1-yl)nicotinonitrile] | > 1000 | > 1000 |  |  | > 1000 | 300 to 1000 | 1 to 50
C[C@@H](Oc1ccc2[nH]nc(-c3ccc(N4CC(C)(N5CCCC5)C4)nc3)c2c1F)c1c(Cl)cncc1Cl [Example 177, (R)-5-(1-(3,5-dichloropyridin-4-yl)ethoxy)-4-fluoro-3-(6-(3-methyl-3-(pyrrolidin-1-yl)azetidin-1-yl)pyridin-3-yl)-1H-indazole] | 50 to 300 | 1 to 50 |  |  | 300 to 1000 | 1 to 50 | 50 to 300
C[C@@H](Oc1cc2c(-c3cnc(N4CC(C)(N(C)C)C4)c(F)c3)n[nH]c2cc1F)c1c(Cl)cncc1Cl [Example 130, 1-[5-[5-[(1R)-1-(3,5-dichloro-4-pyridyl)ethoxy]-6-fluoro-1H-indazol-3-yl]-3-fluoro-2-pyridyl]-N,N,3-trimethyl-azetidin-3-amine] | 1 to 50 | 1 to 50 |  |  | 1 to 50 | 1 to 50 | 1 to 50
C[C@@H](Oc1ccc2[nH]nc(-c3ccc(N4CC(C)(N5CC(C)(O)C5)C4)nc3)c2c1)c1c(Cl)cncc1Cl [Example 157, 1-[1-[5-[5-[(1R)-1-(3,5-dichloro-4-pyridyl)ethoxy]-1H-indazol-3-yl]-2-pyridyl]-3-methyl-azetidin-3-yl]-3-methyl-azetidin-3-ol] | 1 to 50 | 1 to 50 |  |  | 1 to 50 | 1 to 50 | 1 to 50
C[C@@H](Oc1ccc2[nH]nc(-c3cnc(N4CC(C)(N5CCCC5)C4)c(F)c3)c2c1F)c1c(Cl)cncc1Cl [Example 168, (R)-5-(1-(3,5-dichloropyridin-4-yl)ethoxy)-4-fluoro-3-(5-fluoro-6-(3-methyl-3-(pyrrolidin-1-yl)azetidin-1-yl)pyridin-3-yl)-1H-indazole] | 50 to 300 | 1 to 50 |  |  | 50 to 300 | 1 to 50 | 50 to 300
C[C@@H](Oc1ccc2[nH]nc(-c3ccc(N4CC(C)(NCP(C)(C)=O)C4)nc3)c2c1)c1c(Cl)cncc1Cl [Example 230, 1-[5-[5-[(1R)-1-(3,5-dichloro-4-pyridyl)ethoxy]-1H-indazol-3-yl]-2-pyridyl]-N-(di-methylphosphoryl-methyl)-3-methyl-azetidin-3-amine] | 1 to 50 | 1 to 50 |  |  | 1 to 50 | 1 to 50 | 1 to 50
C[C@@H](Oc1cc2c(-c3cnc(N4CC5(CC5)C4)c(C#N)c3)n[nH]c2cc1F)c1c(Cl)cncc1Cl [Example 5, (R)-5-(5-(1-(3,5-Dichloropyridin-4-yl)ethoxy)-6-fluoro-1H-indazol-3-yl)-2-(5-azaspiro[2.3]hexan-5-yl)nicotinonitrile] | > 1000 | 50 to 300 |  |  | > 1000 | 50 to 300 | 1 to 50
COCCN(C)C1(C)CN(c2ncc(-c3n[nH]c4ccc(O[C@H](C)c5c(Cl)cncc5Cl)cc34)cc2F)C1 [Example 85, (R)-1-(5-(5-(1-(3,5-dichloropyridin-4-yl)ethoxy)-1H-indazol-3-yl)-3-fluoropyridin-2-yl)-N-(2-methoxyethyl)-N,3-dimethylazetidin-3-amine] | 1 to 50 | 1 to 50 |  |  | 1 to 50 | 1 to 50 | 1 to 50
COc1cc2[nH]nc(-c3cnc(N4CC5(CC5)C4)c(C#N)c3)c2cc1O[C@H](C)c1c(Cl)cncc1Cl [Example 3, (R)-5-(5-(1-(3,5-dichloropyridin-4-yl)ethoxy)-6-methoxy-1H-indazol-3-yl)-2-(5-azaspiro[2.3]hexan-5-yl)nicotinonitrile] | 50 to 300 | 1 to 50 |  |  | 300 to 1000 | 1 to 50 | 1 to 50
C[C@@H](Oc1ccc2[nH]nc(-c3ccc(N4CC(C)(CP(C)(C)=O)C4)nc3)c2c1F)c1c(Cl)cncc1Cl [Example 187, (R)-((1-(5-(5-(1-(3,5-dichloro-pyridin-4-yl)ethoxy)-4-fluoro-1H-indazol-3-yl)pyridin-2-yl)-3-methylazetidin-3-yl)methyl)dimethyl-phosphine oxide] | > 1000 | 50 to 300 |  |  | 300 to 1000 | 50 to 300 | 300 to 1000
